Here are results for 20 compounds from patent publication US20240376099A1, “COMPOUNDS AND COMPOSITIONS AS INHIBITORS OF ENDOSOMAL TOLL-LIKE RECEPTORS” (Novartis AG, priority 2016, published 2024).

In the experiment the target is T1, TLR8 (Homo sapiens, UniProt Q9NR97).
T1 sequence (Q9NR97 27-1041): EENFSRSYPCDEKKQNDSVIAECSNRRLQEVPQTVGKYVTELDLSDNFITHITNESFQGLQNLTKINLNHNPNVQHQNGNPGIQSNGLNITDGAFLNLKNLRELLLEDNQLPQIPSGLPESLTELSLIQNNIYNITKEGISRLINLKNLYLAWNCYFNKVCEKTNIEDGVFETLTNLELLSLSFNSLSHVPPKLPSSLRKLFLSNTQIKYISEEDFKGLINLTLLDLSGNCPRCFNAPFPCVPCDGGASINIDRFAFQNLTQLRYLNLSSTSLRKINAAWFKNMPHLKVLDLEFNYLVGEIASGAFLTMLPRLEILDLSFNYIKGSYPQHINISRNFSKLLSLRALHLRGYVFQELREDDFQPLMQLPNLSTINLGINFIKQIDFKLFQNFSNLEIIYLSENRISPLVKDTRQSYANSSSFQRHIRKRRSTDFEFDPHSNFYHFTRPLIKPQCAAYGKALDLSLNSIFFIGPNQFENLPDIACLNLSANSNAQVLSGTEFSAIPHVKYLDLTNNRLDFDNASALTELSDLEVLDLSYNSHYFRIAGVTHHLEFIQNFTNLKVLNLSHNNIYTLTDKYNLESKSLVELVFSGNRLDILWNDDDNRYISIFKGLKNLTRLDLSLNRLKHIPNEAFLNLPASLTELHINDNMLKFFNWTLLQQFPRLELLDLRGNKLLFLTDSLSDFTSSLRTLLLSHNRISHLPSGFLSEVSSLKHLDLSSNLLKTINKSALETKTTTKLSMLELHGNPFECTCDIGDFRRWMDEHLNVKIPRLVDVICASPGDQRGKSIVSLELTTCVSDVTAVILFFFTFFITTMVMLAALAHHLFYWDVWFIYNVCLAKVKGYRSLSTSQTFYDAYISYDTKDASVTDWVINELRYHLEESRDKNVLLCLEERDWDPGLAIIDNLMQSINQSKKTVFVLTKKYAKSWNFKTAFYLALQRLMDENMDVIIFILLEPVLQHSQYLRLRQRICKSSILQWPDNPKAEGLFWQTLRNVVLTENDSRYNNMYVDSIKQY
Put plainly: huPBMC TLR8 Antagonist IL-6 TR-FRET Assay. The experiment is classed as cell-based. On the set-up: Fresh blood was collected from normal human donors; endogenous in cells; host or cells: human PBMCs from fresh donor blood. The note with it: human PBMCs stimulated with ssRNA40 1 μg/ml (DOTAP), 14-16 hrs; IL-6 TR-FRET read-out. The gist of the method: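 Human PBMCs from fresh donor blood (150,000 cells/well) stimulated 14–16 h at 37 °C with DOTAP-complexed ssRNA40 (final 1 μg/ml for TLR8, 10 μg/mL for TLR7) or ODN2216 (final 0.3 μM, TLR9), 0.25% DMSO, ten-point 1/3 compound dilutions. Supernatant IL-6 read by HTRF (TLR8); IFNα by IFNα2b AlphaLISA (TLR7/TLR9).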
Background: In TR-FRET formats the signal depends on donor and acceptor labels being close together.

What is called IC50 is the concentration that inhibits the measured activity by half. Consider `Cc1nc(N2CCc3c(c(C)nn3CC34CCC(N5CCCC5)(CC3)CC4)C2)c2c(n1)c(C)nn2C` [compound 17, 1,3,5-trimethyl-7-(3-methyl-1-((4-(pyrrolidin-1-yl)bicyclo[2.2.2]octan-1-yl)methyl)-6,7-dihydro-1H-pyrazolo[4,3-c]pyridin-5(4H)-yl)-1H-pyrazolo[4,3-d]pyrimidine], for which the IC50 is 199 nM. Regarding `COCCNC12CCC(Cn3nc(C)c4c3CCN(c3nc(C)nc5c(C)nn(C)c35)C4)(CC1)CC2` [compound 18, N-(2-methoxyethyl)-4-((3-methyl-5-(1,3,5-trimethyl-1H-pyrazolo[4,3-d]pyrimidin-7-yl)-4,5,6,7-tetrahydro-1H-pyrazolo[4,3-c]pyridin-1-yl)methyl)bicyclo[2.2.2]octan-1-amine], the IC50 turned out to be 77 nM. Regarding `Cc1nc(N2CCc3c(c(C)nn3CC34CCC(N5CCOCC5)(CC3)CC4)C2)c2cnn(C)c2n1` [compound 19, 4-(4-((5-(1,6-dimethyl-1H-pyrazolo[3,4-d]pyrimidin-4-yl)-3-methyl-4,5,6,7-tetrahydro-1H-pyrazolo[4,3-c]pyridin-1-yl)methyl)bicyclo[2.2.2]octan-1-yl)morpholine], the IC50 came out at 186 nM. On to `CCNCC(=O)NC12CCC(Cn3nc(C)c4c3CCN(c3nc(C)nc5[nH]ncc35)C4)(CC1)CC2` [compound 20, 2-(ethylamino)-N-(4-((3-methyl-5-(6-methyl-1H-pyrazolo[3,4-d]pyrimidin-4-yl)-4,5,6,7-tetrahydro-1H-pyrazolo[4,3-c]pyridin-1-yl)methyl)bicyclo[2.2.2]octan-1-yl)acetamide], for which the IC50 came out at 31 nM. Then `Cc1nc(N2CCc3c(c(C)nn3CC34CCC(N5CCOCC5)(CC3)CC4)C2)c2cn[nH]c2n1` [compound 21, 4-(4-((3-methyl-5-(6-methyl-1H-pyrazolo[3,4-d]pyrimidin-4-yl)-4,5,6,7-tetrahydro-1H-pyrazolo[4,3-c]pyridin-1-yl)methyl)bicyclo[2.2.2]octan-1-yl)morpholine], with 36 nM.

As to `CCNCC(=O)NC12CCC(Cn3nc(C)c4c3CCN(c3nc(C)nc5c(C)nn(C)c35)C4)(CC1)CC2` [compound 22, 2-(ethylamino)-N-(4-((3-methyl-5-(1,3,5-trimethyl-1H-pyrazolo[4,3-c]pyrimidin-7-yl)-4,5,6,7-tetrahydro-1H-pyrazolo[4,3-c]pyridin-1-yl)methyl)bicyclo[2.2.2]octan-1-yl)acetamide], the IC50 was found to be 14 nM.

Consider `Cc1nc(N2CCc3c(c(C)nn3CC34CCC(NCC5COC5)(CC3)CC4)C2)c2c(n1)c(C)nn2C` [compound 23, 4-((3-methyl-5-(1,3,5-trimethyl-1H-pyrazolo[4,3-c]pyrimidin-7-yl)-4,5,6,7-tetrahydro-1H-pyrazolo[4,3-c]pyridin-1-yl)methyl)-N-(oxetan-3-ylmethyl)bicyclo[2.2.2]octan-1-amine], for which the IC50 amounted to 373 nM.

Regarding `Cc1nc(N2CCc3c(c(C)nn3CC34CCC(NC(=O)CCN(C)C)(CC3)CC4)C2)c2c(n1)c(C)nn2C` [compound 24, 3-(dimethyalmino)-N-(4-((3-methyl-5-(1,3,5-trimethyl-1H-pyrazolo[4,3-d]pyrimidin-7-yl)-4,5,6,7-tetrahydro-1H-pyrazolo[4,3-c]pyridin-1-yl)methyl)bicyclo[2.2.2]octan-1-yl)propanamide], the IC50 was 10 nM.

Regarding `Cc1nc(N2CCc3c(c(C)nn3CC34CCC(N5CCOCC5)(CC3)CC4)C2)c2c(n1)c(C)nn2C` [compound 25, 4-(4-((3-methyl-5-(1,3,5-trimethyl-1H-pyrazolo[4,3-d]pyrimidin-7-yl)-4,5,6,7-tetrahydro-1H-pyrazolo[4,3-c]pyridin-1-yl)methyl)bicyclo[2.2.2]octan-1-yl)morpholine], the IC50 was determined as 17 nM. Regarding `Cc1nc(N2CCc3c(c(C)nn3CC34CCC(NC5CCC5)(CC3)CC4)C2)c2c(n1)c(C)nn2C` [compound 27, N-cyclobutyl-4-((3-methyl-5-(1,3,5-trimethyl-1H-pyrazolo[4,3-d]pyrimidin-7-yl)-4,5,6,7-tetrahydro-1H-pyrazolo[4,3-c]pyridin-1-yl)methyl)bicyclo[2.2.2]octan-1-amine], the IC50 was determined as 14 nM.

For `Cc1nc(N2CCc3c(c(C)nn3CC34CCC(N(C5CCC5)C5CCC5)(CC3)CC4)C2)c2c(n1)c(C)nn2C` [compound 28, N,N-dicyclobutyl-4-((3-methyl-5-(1,3,5-trimethyl-1H-pyrazolo[4,3-d]pyrimidin-7-yl)-4,5,6,7-tetrahydro-1H-pyrazolo[4,3-c]pyridin-1-yl)methyl)bicyclo[2.2.2]octan-1-amine], the IC50 turned out to be 641 nM. `Cc1nc(N2CCc3c(c(C)nn3CC34CCC(N5CCCCC5)(CC3)CC4)C2)c2cn[nH]c2n1` [compound 29, 6-methyl-4-(3-methyl-1-((4-(piperidin-1-yl)bicyclo[2.2.2]octan-1-yl)methyl)-6,7-dihydro-1H-pyrazolo[4,3-c]pyridin-5(4H)-yl)-1H-pyrazolo[3,4-d]pyrimidine]: the 50% inhibitory concentration (IC50) worked out at 16 nM.

For the compound `Cc1nc(N2CCc3c(c(C)nn3CC34CCC(N5CCCC5)(CC3)CC4)C2)c2cn[nH]c2n1` [compound 30, 6-methyl-4-(3-methyl-1-((4-(pyrrolidin-1-yl)bicyclo[2.2.2]octan-1-yl)methyl)-6,7-dihydro-1H-pyrazolo[4,3-c]pyridin-5(4H)-yl)-1H-pyrazolo[3,4-d]pyrimidine], the IC50 came out at 324 nM. Regarding `Cc1nc(N2CCc3c(c(C)nn3CC34CCC(NCC5(CO)COC5)(CC3)CC4)C2)c2c(n1)c(C)nn2C` [compound 31, (3-(((4-((3-methyl-5-(1,3,5-trimethyl-1H-pyrazolo[4,3-d]pyrimidin-7-yl)-4,5,6,7-tetrahydro-1H-pyrazolo[4,3-c]pyridin-1-yl)methyl)bicyclo[2.2.2]octan-1-yl)amino)methyl)oxetan-3-yl)methanol], the IC50 is 27 nM. Next, `Cc1nc(N2CCc3c(c(C)nn3CC34CCC(NC(=O)[C@@H]5COCCN5)(CC3)CC4)C2)c2c(n1)c(C)nn2C` [compound 33, (S)-N-(4-((3-methyl-5-(1,3,5-trimethyl-1H-pyrazolo[4,3-d]pyrimidin-7-yl)-4,5,6,7-tetrahydro-1H-pyrazolo[4,3-c]pyridin-1-yl)methyl)bicyclo[2.2.2]octan-1-yl)morpholine-3-carboxamide]: 72 nM; `Cc1nc(N2CCc3c(c(C)nn3CC34CCC(NC(=O)[C@@H]5CNCCO5)(CC3)CC4)C2)c2c(n1)c(C)nn2C` [compound 34, (S)-N-(4-((3-methyl-5-(1,3,5-trimethyl-1H-pyrazolo[4,3-d]pyrimidin-7-yl)-4,5,6,7-tetrahydro-1H-pyrazolo[4,3-c]pyridin-1-yl)methyl)bicyclo[2.2.2]octan-1-yl)morpholine-2-carboxamide]: 29 nM; `Cc1nc(N2CCc3c(c(C)nn3CC34CCC(NC(=O)[C@H]5CNCCO5)(CC3)CC4)C2)c2c(n1)c(C)nn2C` [compound 36, (R)-N-(4-((3-methyl-5-(1,3,5-trimethyl-1H-pyrazolo[4,3-d]pyrimidin-7-yl)-4,5,6,7-tetrahydro-1H-pyrazolo[4,3-c]pyridin-1-yl)methyl)bicyclo[2.2.2]octan-1-yl)morpholine-2-carboxamide]: 80 nM. In the case of `Cc1nc(N2CCc3c(c(C)nn3CC34CCC(N5CCOCC5)(CC3)CC4)C2)c2c(C)noc2n1` [compound 37, 3,6-dimethyl-4-(3-methyl-1-((4-morpholinobicyclo[2.2.2]octan-1-yl)methyl)-6,7-dihydro-1H-pyrazolo[4,3-c]pyridin-5(4H)-yl)isoxazolo[5,4-d]pyrimidine], the IC50 was determined as 79 nM. Turning to `Cc1nc(N2CCc3c(c(C)nn3CC34CCC(N5CCCCC5)(CC3)CC4)C2)c2c(n1)c(C)nn2C` [compound 38, 1,3,5-trimethyl-7-(3-methyl-1-((4-(piperidin-1-yl)bicyclo[2.2.2]octan-1-yl)methyl)-6,7-dihydro-1H-pyrazolo[4,3-c]pyridin-5(4H)-yl)-1H-pyrazolo[4,3-d]pyrimidine], the IC50 amounted to 31 nM. For the compound `Cc1nc(N2CCc3c(c(C)nn3CC34CCC(N5CCCCC5)(CC3)CC4)C2)c2cnn(C)c2n1` [compound 39, 1,6-dimethyl-4-(3-methyl-1-((4-(piperidin-1-yl)bicyclo[2.2.2]octan-1-yl)methyl)-6,7-dihydro-1H-pyrazolo[4,3-c]pyridin-5(4H)-yl)-1H-pyrazolo[3,4-c]pyrimidine], the IC50 was 119 nM.
